From patent US20110097409A1, “PARTICLES COMPRISING A SALT OF 8-HYDROXY-2-[[(1R)-2-(4-METHOXYPHENYL)-1-METHYLETHYL]AMINO]ETHYL]-2(1H)-QUINOLINONE HAVING IMPROVED ADHESION PROPERTIES FOR POWDER FORMULATIONS FOR INHALATION” (Chiesi Farmaceutici S.p.A., priority 2008, published 2011)
Where a name gives a salt, the structure may show the parent alone.

Assays:
[1] = Shape factor SF and particle shape from SEM images; type: physicochemical
Method: Accordingly, the powder particles of the invention are characterized by a “shape factor” SF comprised between 0.8 and 1.0, preferably from 0.85 and 0.95 as determined according to the following equation reported in Kumar S et al., Curr. Appl. Phys. Influence of metal powder shape on drag coefficient in a spray jet, 2008, in press doi:10.1016/j.cap.2008.06.005.
RN indicates the roundness of the particle and is calculated by applying the following formula: […]
wherein p and A are the mean perimeter and area values, respectively, of ten spherical particles as measured from Scanning electron microscopy (SEM) images.
The shape factor of the obtained particles, calculated according to the equation reported in the Detailed Description of the Preferred Embodiments, turned out to be comprised between 0.87 and 0.95.

[2] = Force and work of adhesion by atomic force microscopy (colloid probe); type: physicochemical; settings: against smooth lactose carrier
From the text: The force of adhesion of the batches of powder particles obtained in Example 1 has been determined according to the procedure reported hereafter in comparison to those to those of micronised carmoterol hydrochloride and budesonide raw materials (r.m.) obtained by a conventional milling process.
As a substrate, alpha-lactose particles with a smooth surface having the characteristics reported in EP 1 196 146 and obtained as therein described are used.
An Atomic Force Microscope (AFM) as a scanning probe microscope is used to image lactose surface on an nm or even sub-nm level and to measure surface forces between the powder particles of the invention and particles of smoothed lactose.
A way to get information on the surface forces which are acting in a system and to illustrate the functioning of an AFM, is to use the “Force-Mode”. This is done by moving the tip towards and away from the surface. Recording photodetector signal as a function of z-piezo elongation yields a curve which can be interpreted as a force-vs.-distance-curve. In this work, this technique has been employed to measure the drug-carrier adhesion force modifying the original cantilever.
The interaction of the micron-sized carmoterol particles with lactose carrier surfaces is conducted using the Explorer AFM (Thermomicroscopes, UK). A multistage micromanipulation method for the attachment of micrometer-sized drug particles to tipless cantilevers was adapted from the method described by Preuss and Butt (Preuss M, Butt H-J. 1998, Langmuir, 14:3164-3174). Essentially, colloid probes are prepared by mounting an individual drug particle (approximate diameter 3-5 μm) onto a V-shaped tiples silicon nitride cantilever (spring constant k=0.58 N/m, Veeco Instruments Ltd., Cambridge, UK) using a quick-setting epoxy resin together with the custom-built microscope.
Force separation measurements are collected using layered imaging mode to produce multiple force distance curves (n=250) between each drug probe at three surface sites over a 10 μm×10 μm area. As the variability in probe contact radius geometry was unknown each study is performed at least in triplicate (n=3 to 4 probes for each measurement).
The displacement curves for each of the 250 contact points in the 10 μm×10 μm sector are plotted using a custom built MatLab program (The Mathworks Inc. USA).
The force of adhesion (the apex of the adhesion peak) and the work of adhesion (integrated area of the adhesion peak) is calculated for each graph. […] Outliers are defined as data points outside the 5-95% limits of the normal distributions obtained, and these are removed automatically by the batch conversion software. […]

shape factor SF ([1]; SF=1/RN, RN=p^2/4πA, from SEM images): 0.51 | particle shape by SEM inspection ([1]; scanning electron microscope, FIG. 1): different irregular flakes and/or sheets | Force of adhesion Fmax ([2]; particle population (20%)): 11.03 ± 1.27 (20%) nN | Work of adhesion Wad ([2]; particle population (20%)): 413.15 ± 131.85 µJ | Force of adhesion Fmax ([2]; particle population (80%)): 42.68 ± 4.63 (80%) nN | Work of adhesion Wad ([2]; particle population (80%)): 2115.69 ± 344.31 µJ
SMILES: COc1ccc(C[C@@H](C)NC[C@H](O)c2ccc(O)c3[nH]c(=O)ccc23)cc1 [Carmoterol HCl r.m., 8-hydroxy-5-[(1R)-1-hydroxy-2-[[(1R)-2-(4-methoxyphenyl)-1-methylethyl]amino]ethyl]-2(1H)-quinolinone]
